Key:
[1] = molecular target: T1, complex I (Homo sapiens, UniProt O75251+O75306+P03886); experiment: spectrophotometric NADH oxidation, rotenone-sensitive complex I activity; type: biochemical; details: 120 uM NADH, 20 uM oxidized cytochrome c, pH 7.5, 37 °C; Q-site (ubiquinone reduction site), no effect at NADH site
T1 construct: gene NDUFS2; native respiratory complex I (whole multi-subunit complex)

[2] = molecular target: T2, complex I (bovine heart) (Bos taurus, UniProt P03887+P17694+P42026); experiment: as above; type: biochemical; details: 120 uM NADH, 20 uM oxidized cytochrome c, pH 7.5, 37 °C; Q-site (ubiquinone reduction site), no effect at NADH site
T2 construct: gene NDUFS2; native respiratory complex I (whole multi-subunit complex)
T2 sequence (P17694 34-463): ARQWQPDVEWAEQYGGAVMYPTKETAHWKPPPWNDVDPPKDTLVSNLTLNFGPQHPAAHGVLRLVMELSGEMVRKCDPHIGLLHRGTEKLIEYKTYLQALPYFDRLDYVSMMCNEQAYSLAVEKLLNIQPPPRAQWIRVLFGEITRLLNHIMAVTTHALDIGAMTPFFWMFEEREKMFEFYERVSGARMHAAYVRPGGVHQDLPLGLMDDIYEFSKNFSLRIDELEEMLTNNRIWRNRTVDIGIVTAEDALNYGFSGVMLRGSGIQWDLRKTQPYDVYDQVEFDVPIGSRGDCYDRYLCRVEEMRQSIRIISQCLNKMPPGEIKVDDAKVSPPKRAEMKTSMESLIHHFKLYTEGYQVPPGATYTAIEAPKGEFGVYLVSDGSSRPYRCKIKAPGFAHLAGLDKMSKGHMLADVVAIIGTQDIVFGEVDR
T2 sequence (P42026 38-216): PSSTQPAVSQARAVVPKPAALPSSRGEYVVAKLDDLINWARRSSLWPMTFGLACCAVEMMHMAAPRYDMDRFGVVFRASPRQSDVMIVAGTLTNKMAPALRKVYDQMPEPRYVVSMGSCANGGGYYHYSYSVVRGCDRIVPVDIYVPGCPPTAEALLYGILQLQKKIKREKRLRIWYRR
T2 sequence (P03887 whole entry): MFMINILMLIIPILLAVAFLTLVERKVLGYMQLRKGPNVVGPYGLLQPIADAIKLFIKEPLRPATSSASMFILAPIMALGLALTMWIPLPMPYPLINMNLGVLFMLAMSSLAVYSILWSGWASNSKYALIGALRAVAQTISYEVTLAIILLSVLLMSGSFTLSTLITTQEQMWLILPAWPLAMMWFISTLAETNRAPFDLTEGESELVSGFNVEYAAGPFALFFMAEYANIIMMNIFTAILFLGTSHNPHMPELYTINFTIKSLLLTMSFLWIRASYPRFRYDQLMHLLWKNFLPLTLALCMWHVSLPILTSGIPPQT

T1 sequence (O75306 34-463): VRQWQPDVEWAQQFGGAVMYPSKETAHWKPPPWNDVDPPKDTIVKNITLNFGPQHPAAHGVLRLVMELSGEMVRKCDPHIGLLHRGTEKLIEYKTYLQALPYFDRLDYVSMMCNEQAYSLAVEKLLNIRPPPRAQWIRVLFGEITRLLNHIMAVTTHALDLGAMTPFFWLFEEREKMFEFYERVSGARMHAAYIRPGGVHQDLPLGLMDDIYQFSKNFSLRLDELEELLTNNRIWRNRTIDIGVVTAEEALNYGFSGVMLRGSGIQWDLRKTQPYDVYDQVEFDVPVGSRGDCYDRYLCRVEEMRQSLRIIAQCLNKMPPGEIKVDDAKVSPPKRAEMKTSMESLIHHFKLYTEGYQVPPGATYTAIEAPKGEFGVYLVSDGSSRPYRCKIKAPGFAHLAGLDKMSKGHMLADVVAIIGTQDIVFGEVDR
T1 sequence (O75251 39-213): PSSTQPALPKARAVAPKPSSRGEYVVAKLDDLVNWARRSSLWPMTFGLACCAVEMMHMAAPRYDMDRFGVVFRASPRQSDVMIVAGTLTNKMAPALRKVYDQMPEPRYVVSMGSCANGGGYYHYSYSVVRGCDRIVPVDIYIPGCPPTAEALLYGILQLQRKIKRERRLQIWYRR
T1 sequence (P03886 whole entry): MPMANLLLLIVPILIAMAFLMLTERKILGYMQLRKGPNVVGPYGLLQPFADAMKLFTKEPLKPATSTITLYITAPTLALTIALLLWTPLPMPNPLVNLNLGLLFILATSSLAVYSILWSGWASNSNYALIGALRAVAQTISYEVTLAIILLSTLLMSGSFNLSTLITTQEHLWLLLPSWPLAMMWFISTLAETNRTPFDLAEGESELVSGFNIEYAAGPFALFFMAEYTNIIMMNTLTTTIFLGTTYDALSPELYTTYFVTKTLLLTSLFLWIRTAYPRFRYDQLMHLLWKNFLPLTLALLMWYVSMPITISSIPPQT

## C[C@@H](C(=O)Nc1ccc(Cl)cc1)[C@H]1CC[C@@H](c2ccnc3ccc(F)cc32)CC1 [BMS-986205]
[1]
  complex I activity: dose-dependent decrease of complex I activity in mitochondria from KRAS^G12V/MYC, HEK293T cells and bovine heart
[2]
  complex I activity: dose-dependent decrease of complex I activity in mitochondria from KRAS^G12V/MYC, HEK293T cells and bovine heart

Reference: publication PMC12669732, “Synergistic targeting of cancer cells through simultaneous inhibition of key metabolic enzymes” (Cell Death and Differentiation, 2025)
